Data taken from patent US12635693B2, “Activated ferrate compositions and methods” (THE TEXAS A&M UNIVERSITY SYSTEM, priority 2020, dated 2026).

Test: Removal (oxidation) of Carbamazepine (CBZ) by ferrate with or without amino acids, HPLC
Settings: [ferrate]=100.0 μM
Description: (Experimental conditions: [CBZ]=5.0 μM, [ferrate]=100.0 μM, [amino acid]=100.0 μM, pH 9.0 (10.0 mM borate buffer), reaction time=1 min).
After certain reaction time, a 20.0 μL NH2OH solution (1 M, [NH2OH]: [ferrate]=10.0) was added to quench the reactions. Samples were transferred into high performance liquid chromatography (HPLC) vials and subsequently analyzed using the HPLC method. Each treatment was performed with triplicates and the mean removal values were reported.
Preliminary experiments were conducted to see the influence of amino acids (100.0 μM) on removal of CBZ (5.0 μM) by ferrate (100.0 μM) at pH 9.0 (10.0 mM borate buffer) after 1 min of oxidation. In these experiments, the solution of selected amino acids (FIG. 1) was mixed with CBZ, followed by addition of ferrate.

## O=C(O)[C@@H]1CCCN1 [proline]
Molar ratio of proline to ferrate 1.0, within 90 s, pH 9.0
  oxidation of CBZ: 100%

## [O]=[Fe](=[O])([O-])[O-] [ferrate]
Ferrate only (without proline), [CBZ]=5.0 μM, pH 9.0 (10.0 mM borate buffer), 80 min
  removal of CBZ: 70%
